In PubChem BioAssay AID651851 (Broad Institute, 2012) one finds outcome and IC90 data, which are given here for eight compounds.

The source made the active and inactive calls. The rule behind the calls is not given here.

Test system in one test: not listed separately
Briefly: growth inhibition of replicating M. tuberculosis, dose response, counter-screen, log phase (AID 651851). Particulars: Mycobacterium tuberculosis log-phase replicating growth inhibition. A general note: A counterscreen serves to expose hits that act by an unwanted route or on another target.
`Fc1ccc(Cn2cc(CSc3nnc(-c4ccc(Cl)cc4)o3)nn2)cc1`: the outcome was inactive.

For `Clc1ccc(-c2nnc(SCc3cn(Cc4ccccc4)nn3)o2)cc1`, the result was inactive.

A further test deals with Mycobacterium tuberculosis log-phase replicating growth inhibition. The test is described as above.
Settings: not given
For the compound `O=S(Cc1ccccc1)c1nnc(-c2ccccc2)o1` (stereo not drawn), the IC90 – broadly, the point of the concentration-response curve where the effect stands at 90% – was 31 µM.

On to `O=S(=O)(Cc1ccccc1)c1nnc(-c2ccccc2)o1`, for which the IC90 is 62 µM.

Regarding `O=S(Cc1cn(Cc2ccccc2)nn1)c1nnc(-c2ccc(Cl)cc2)o1` (stereo not drawn), the IC90 was 62 µM.

Consider `c1ccc(CSc2nnc(-c3ccccc3)o2)cc1`, for which the IC90 was 250 µM.

`O=S(=O)(Cc1cn(Cc2ccccc2)nn1)c1nnc(-c2ccc(Cl)cc2)o1`: the 90% effect concentration (IC90) is 62 µM.

Consider `O=S(Cc1cn(Cc2ccc(F)cc2)nn1)c1nnc(-c2ccc(Cl)cc2)o1` (stereo not drawn), for which the IC90 was 62 µM.
